Structures can show the parent of a compound that is named as a salt.
Experiments:
Test in all cases: Antibacterial activity, MIC (agar)
Format in all cases: cell-based
S. marcescens US 32 = conditions: Serratia marcescens, US32
Source text: (§1) The antibacterial activities of compounds of the present invention (MIC µg/ml)

S. pyogenes CN 10 = conditions: Streptococcus pyogenes, CN10
Source text: as §1

E. coli JT 4 = conditions: Escherichia coli, JT4
Source text: as §1

E. coli NCTC 10418 = conditions: Escherichia coli, NCTC10418
Source text: as §1

E. cloacae N1 = conditions: Enterobacter cloacae
Source text: as §1

E. coli ESS = conditions: Escherichia coli
Source text: as §1

Ps. aeruginosa Dalgleish = conditions: Pseudomonas aeruginosa, Ps. aeruginosa Dalgleish 10^-2
Source text: as §1

P. rettgeri = conditions: Providencia rettgeri
Source text: as §1

[1] = system: Ps. aeruginosa NCTC 10662; conditions: Pseudomonas aeruginosa
Source text: as §1

S. aureus Oxford = conditions: Staphylococcus aureus
Source text: as §1

S. faecalis I = conditions: Enterococcus faecalis
Source text: as §1

K. aerogenes A = conditions: Klebsiella aerogenes
Source text: as §1

S. aureus Russell = conditions: Staphylococcus aureus
Source text: as §1

N. catarrhalis 1502 = system: N. catarrhalis 1502
Source text: as §1

E. coli JT 425 = conditions: Escherichia coli, JT425
Source text: as §1

P. mirabilis 889 = conditions: Proteus mirabilis
Source text: as §1

P. mirabilis C 977 = conditions: Proteus mirabilis, C977
Source text: as §1

[2] = NCTC10662, Ps. aeruginosa NCTC 10662
[3] = NCTC10662, Ps. aeruginosa NCTC 10662 10^-2

## NS(=O)(=O)c1ccc(Nc2ncc(NC(=O)N[C@@H](C(=O)N[C@@H]3C(=O)N4[C@@H](C(=O)O)CS[C@H]34)c3ccccc3)c(O)n2)cc1 [Example 3, 6β-[D,2-{2-(4-Aminosulphonylanilino)-4-hvdroxypyrimidyl-5-aminocarbonylamino}-2-phenyl]acetamidobisnor penicillanic acid, sodium salt]
S. marcescens US 32
  MIC: 2.5 µg/mL
S. pyogenes CN 10
  MIC: 0.2 µg/mL
E. coli JT 4
  MIC: > 100 µg/mL
E. coli NCTC 10418
  MIC: 0.5 µg/mL
E. cloacae N1
  MIC: 1 µg/mL
E. coli ESS
  MIC: 0.05 µg/mL
Ps. aeruginosa Dalgleish
  MIC: 50 µg/mL
P. rettgeri
  MIC: 1 µg/mL
[1]; [2]
  MIC: 5 µg/mL
[1]; [3]
  MIC: 2.5 µg/mL
S. aureus Oxford
  MIC: 1 µg/mL
S. faecalis I
  MIC: 25 µg/mL
K. aerogenes A
  MIC: 0.2 µg/mL
S. aureus Russell
  MIC: 50 µg/mL
N. catarrhalis 1502
  MIC: 0.05 µg/mL
E. coli JT 425
  MIC: 5 µg/mL
P. mirabilis 889
  MIC: > 100 µg/mL
P. mirabilis C 977
  MIC: 0.2 µg/mL

## NS(=O)(=O)c1ccc(Nc2ncc(NC(=O)N[C@@H](C(=O)N[C@@H]3C(=O)N4[C@@H](C(=O)O)CS[C@H]34)c3ccc(O)cc3)c(O)n2)cc1 [Example 4, 6β-[D,2-2-(4-Aminosulphonylanilino)-4-hydroxypyrimidyl-5-aminocarbonylamino}-2-(4-hydroxyphenyl)]acetamido-bisnorpenicillanic acid, sodium salt]
S. marcescens US 32
  MIC: 1 µg/mL
S. pyogenes CN 10
  MIC: 0.1 µg/mL
E. coli JT 4
  MIC: 100 µg/mL
E. coli NCTC 10418
  MIC: 0.25 µg/mL
E. cloacae N1
  MIC: 2.5 µg/mL
E. coli ESS
  MIC: 0.05 µg/mL
Ps. aeruginosa Dalgleish
  MIC: 25 µg/mL
P. rettgeri
  MIC: 2.5 µg/mL
[1]; [2]
  MIC: 2.5 µg/mL
[1]; [3]
  MIC: 0.5 µg/mL
S. aureus Oxford
  MIC: 2.5 µg/mL
S. faecalis I
  MIC: 25 µg/mL
K. aerogenes A
  MIC: 0.25 µg/mL
S. aureus Russell
  MIC: 25 µg/mL
N. catarrhalis 1502
  MIC: 0.05 µg/mL
E. coli JT 425
  MIC: 2.5 µg/mL
P. mirabilis 889
  MIC: > 100 µg/mL
P. mirabilis C 977
  MIC: 2.5 µg/mL

From patent EP0067612A1, “Penicillin derivatives” (BEECHAM GROUP PLC, priority 1981, dated 1982)
